# Results as given in US20190048052A1, “ANTI-MICROBIAL PEPTIDES AND COATINGS” (Board of Regents of the University of Nebraska, priority 2016, published 2019).
# Residues, ends and D or L forms follow the SMILES beside them.
# Legend:
# [1] = tested on: A. baumannii B2367-12; assay type: cell-based, Acinetobacter baumannii; settings: B2367-12
# Experimental: (§1) Bacterial strains used in this study included Enterococcus faecium ATCC51559, Staphylococcus aureus USA300 LAC, Klebsiella pneumoniae ATCC 13883, Acinetobacter baumannii B2367-12, Pseudomonas aeruginosa PAO1, Enterobacter cloacae B2366-12 and Escherichia coli ATCC 25922, wherein the first six constituting the ESKAPE pathogens. Tryptic soy broth (TSB) for bacterial growth was obtained from BD Bioscience (Sparks, Md.).
# (§2) The antibacterial activity of peptides was evaluated using a standard broth microdilution protocol as described (Wang et al. (2012) Antimicrob. Agents Chemother., 56:845-856). In brief, 5 μl of each bacterium (stored at −80° C.) were inoculated into TSB medium (2 ml) and grown overnight. A second inoculation was made in the morning by delivering 10 μl of the overnight culture to a fresh TSB medium. After 2-3 hours growth at 37° C., 225 rpm, logarithmic phase bacterial cultures (OD600≈0.5) were diluted and partitioned into a 96-well polystyrene microplate with ˜10^5 colony forming units (CFU) per well (90 μl aliquots). After treatment with 10 μl of peptide solutions at various concentrations, microplates were incubated at 37° C. overnight and read on a ChroMate® 4300 Microplate Reader at 630 nm (GMI, Ramsey, Minn.). The medium was used as a blank where no bacteria should grow.
# [2] = tested on: E. cloacae B2366-12; assay type: cell-based, Enterobacter cloacae; settings: B2366-12
# Experimental: as §1, §2
# [3] = tested on: E. coli ATCC 25922; assay type: cell-based, Escherichia coli; settings: ATCC 25922
# Experimental: as §1, §2
# [4] = tested on: P. aeruginosa PAO1; assay type: cell-based, Pseudomonas aeruginosa; settings: PAO1
# Experimental: as §1, §2
# [5] = tested on: E. faecium ATCC51559; assay type: cell-based, Enterococcus faecium; settings: ATCC51559
# Experimental: as §1, §2
# [6] = tested on: ESKAPE pathogens; assay type: cell-based
# Experimental: as §1, §2
# [7] = tested on: human red blood cells (hRBC); assay type: cell-based; settings: red cells of human
# Experimental: Blood was obtained from the Blood Bank of the University of Nebraska Medical Center (UNMC) and washed three times (800 g, 10 minutes) with normal saline to remove plasma. A final solution containing 2% human red blood cells (hRBC) was then prepared in normal saline and used for the assay. 90 μl of this solution were added to 10 μl of serially diluted peptide solutions and incubated at 37° C. for 1 hour. It was then centrifuged at 15,700 g for 5 minutes on an Eppendorf® bench-top centrifuge 5415D. Aliquots of the supernatant (˜80 μl) were carefully transferred to a fresh 96-well microplate (Costar, Corning, N.Y.) and absorbance was read at 545 nm to detect the amount of hemoglobin released. Percent lysis was calculated based on the extent of hemoglobin released, where 100% release is assumed in the presence of 1% TRITON™ X-100 and 0% release is assumed in saline.
# [8] = tested on: S. aureus USA300 LAC; assay type: cell-based, Staphylococcus aureus; settings: USA300
# Experimental: as §1, §2
# [9] = Cytotoxicity of soluble peptide (MTS); assay type: cell-based; settings: human, HaCaT cells; free peptide; read-out: 50% lethal concentration (LC50) to HaCaT cells
# Experimental: In vitro spontaneously transformed keratinocytes from histologically normal human skin (HaCaT cells) from Fisher (Hampton, N.H.) (Cat # T0020001) were maintained in DMEM high glucose medium with 4 mM L-glutamine (HyClone, South Logan, Utah) and 100 U ml^−1 penicillin, 100 μg ml^−1 streptomycin (pen/strep, p/s) (Life Technologies, Carlsbad, Calif.), and 10% (v v^−1) inactivated fetal bovine serum (FBS, NyClone), DMEM with 10% FBS, p/s. Cells were grown in 5% CO2 at 37° C. and were detached from culturing dish at 100% confluency by treating with 0.025% trypsin-EDTA (NyClone), seeded (100,000 cells well^−1) in 24-well plates (Corning Life Science, Salt Lake City, Utah) and grown overnight in 200 μl of DMEM medium to reach a 70% confluency. The peptide-coated surfaces (1.0×1.0 cm) were placed in a 24-well plate DMEM with or without 10% FBS, p/s for 1 hour. Samples were taken out and 60 μl of CellTiter96® MTS were added. Plates were further incubated for another 2 hours at 37° C. Subsequently, 100 μl of the solution were placed in a clean 96-well plate to measure the absorbance at 492 nm on a ChroMate® reader (GMI). For comparison, the toxicity of the soluble peptides was also measured and they were treated in the same way as described above. The culture medium and a 0.2% SDS solution were used as negative and positive controls, respectively.
# [10] = tested on: S. aureus USA300; assay: Confocal microscopy of preformed biofilms (Example 3); assay type: cell-based, Staphylococcus aureus
# Experimental: S. aureus USA300 (10^5 CFU/mL) was made from exponentially growing bacteria. 1800 μL was added to the chamber of cuvettes (Borosilicate cover glass systems), and was incubated for 37° C., 24 hours for biofilm formation. Media was then pipetted out and chambers were washed with 1×PBS to remove non-adhered cells. To disrupt the preformed biofilms, 200 μL of 10× stocks of the peptide was added followed by 1800 μL of TSB. Control cuvettes contained water instead of peptide. The cuvettes were again incubated for another 24 hours at 37° C. Subsequently, the supernatant was pipetted out and the chambers were washed with 1×PBS. For evaluation under confocal microscope the biofilms were stained with 10 μL of LIVE/DEAD® kit (Invitrogen Molecular Probes) according to the manufacturer's instructions. The samples were examined with a confocal laser scanning microscope (Zeiss 710) and the data processed using Zen 2010 software.
# [11] = tested on: S. aureus USA300; assay: Live cell penetration experiment (FITC, confocal); assay type: cell-based, Staphylococcus aureus; settings: peptide and FITC 12.5 μM
# Experimental: The entrance of a fluorescent dye into live bacterial cells was followed by confocal microscopy (Mishra et al. (2015) RSC Advances 5:59758-59769). In short, S. aureus USA300 was grown to the exponential phase from the overnight culture. The cells were then washed twice with fresh 1×PBS (pH 7.2) and the final cell density was adjusted to 1×10^8 CFU/mL. 1500 μL of the culture was added to the chambers of cuvettes (borosilicate cover glass systems) with equimolar concentrations of TetraF2W-RK and fluorescein isothiocyanate FITC (12.5 μM). The samples were examined with a confocal laser scanning microscope (Zeiss 710) with a series of live time pictures taken at every 5 seconds for 5 minutes and the data were processed using Zen 2010 software.
# [12] = tested on: E. coli ATCC 25922; assay type: cell-based, Escherichia coli; settings: ATCC 25922, 20 h
# Experimental: (§3) The antimicrobial activity of peptides was evaluated using a standard broth microdilution protocol. In brief, exponential phase bacteria at 10^6 CFU were incubated with serially diluted peptides overnight for ˜20 hours at 37° C. The plates were read on a ChroMate® 4300 Microplate Reader at 630 nm (GMI, Ramsey, Minn.).
# [13] = tested on: S. aureus USA300; assay: Growth inhibition in TSB media (FIG. 15A); assay type: cell-based, Staphylococcus aureus; settings: 3.1 μM (printed 3.1 LM), 37° C.
# Experimental: FIGS. 15A and 15B show the growth inhibition (FIG. 15A) and propidium iodide-based membrane permeation (FIG. 15B) of S. aureus USA300 in TSB media by 3.1 μM of TetraF2W-RR and its single arginine variants (Table 8) at 37° C. with shaking at 100 rpm.
# Fluorescence spectroscopy was also used to follow bacterial killing. In brief, μL of serially diluted 10× peptide concentrations were done in 96-well coming COSTAR microtiter plates. Propidium iodide at a fixed concentration of 20 μM per well was added to each well which was finally incubated with 88 μL of S. aureus USA300 (with a final OD600 0.1) with continuous shaking at 100 rpm with meander corner well shaking, 37° C. in a FLUOstar® Omega (BMG LABTECH Inc., NC) microplate reader. The plates were read every 5 minutes for a total duration of 2 hours with excitation and emission wavelengths at 584 nm and 620 nm, respectively.
# [14] = tested on: S. aureus USA300; assay type: cell-based, Staphylococcus aureus; settings: 12.5 μM
# Experimental: Two types of experiments were conducted to evaluate the anti-biofilm activity of these peptides against S. aureus USA300 grown under a static condition for 24 hours to form established biofilms in presence of tryptic soy broth (TSB). The experiment was set up using a flat bottom, 96-well, polystyrene microtiter plates (Corning, COSTAR). In short, S. aureus USA300 (10^5 CFU/mL) in fresh TSB media was made from an exponentially growing culture. 200 μL of this bacterial culture was added to each well of the microtiter plates. The plates are then incubated at 37° C. for 24 hours to allow biofilm formation. Media was then carefully removed followed by washing with sterile 1×PBS to remove any unattached bacteria. Solution containing μL of 10× peptide solution and 180 μL of fresh TSB were added. The plates were again incubated at 37° C. for another 24 hours. To measure the extent of biofilm disruption by the peptides as a function of biofilm reduction, crystal violet staining was performed. Media was pipetted out and the wells were carefully washed with 200 μL of PBS to remove the loosely attached cells. Subsequently, 200 μL of 99% methanol was added for fixation and the plates were allowed to sit for 15 minutes. The plates were finally aspirated and dried. Lastly, staining was done with 200 μL of 1% crystal violet in water for 5 minutes. Excess stain was gently rinsed off with tap water, and plates were air-dried. Further, stains were solubilized in 200 μL of 33% glacial acetic acid followed by colorimetric measurement at 600 nm on a Chromate® microtiter plate reader. The amounts of biofilm growth with and without compound treatments were calculated.
# In addition, live cell contents of the peptide acted biofilms was estimated by XTT [2,3-bis(2-methyloxy-4-nitro-5-sulfophenyl)-2H-tertazolium-5-carboxanilide]assay by following the manufacturer's instructions with modifications. A 10% XTT solution in TSB media was added to each well and the plates were again incubated for 2 hours at 37° C. Absorbance at 450 nm (only media with XTT containing wells served as the blank) was obtained using Chromate® microtiter plate reader. Percentage of biofilm reduction for the peptide was plotted assuming 100% biofilm growth is achieved on the bacterial wells without peptide treatment.
# [15] = tested on: S. aureus USA300; assay type: cell-based, Staphylococcus aureus
# Experimental: as §3
# [16] = tested on: human red blood cells; assay: Hemolytic ability (Example 3); assay type: cell-based; settings: concentration that causes 50% hemolysis
# Experimental: Hemolytic analysis of selected peptides was performed using an established protocol. Briefly, human blood cells (UNMC Blood Bank) were washed three times with phosphate buffer saline (PBS) and diluted to a 2% solution. After peptide treatment, incubation at 37° C. for one hour, and centrifugation at 13,000 rpm, aliquots of the supernatant were transferred to a fresh 96-well microplate. To assess peptide cytotoxicity, the amount of hemoglobin released was measured at 545 nm. The percent lysis was calculated by assuming 100% release when human blood cells were treated with 1% TRITON™ X-100, and 0% release when incubated with PBS buffer.
SMILES,MIC AB [1],MIC ECl [2],MIC EC [3],MIC PA [4],MIC EF [5],MIC range against almost all / most of the tested strains [6],50% hemolytic concentration (HL50) [7],MIC SA [8],CC50 at 1 hour [9],killing in 24 hour preformed biofilms (LIVE/DEAD confocal) [10],time to entry of FITC into bacteria after peptide treatment [11],E. coli (MIC) [12],growth inhibition of S. aureus USA300 [13],killing in preformed biofilms (XTT) [14],cell selectivity index (ratio of HL50 and MIC) ([15]; HL50 human red blood cells / MIC S. aureus USA300),"S. aureus (MIC) ([15]; USA300, 20 h)",HL50 [16]
CC[C@H](C)[C@H](NC(=O)[C@H](CCCNC(=N)N)NC(=O)[C@H](CCC(N)=O)NC(=O)[C@@H](NC(=O)[C@@H](NC(=O)[C@H](CCCNC(=N)N)NC(=O)[C@H](CCCCN)NC(=O)[C@@H](N)Cc1ccccc1)[C@@H](C)CC)C(C)C)C(=O)N[C@@H](CCCCN)C(=O)N[C@@H](CC(=O)O)C(=O)N[C@@H](Cc1ccccc1)C(=O)N[C@@H](CC(C)C)C(=O)N[C@@H](CCCNC(=N)N)C(=O)N[C@@H](CC(N)=O)C(=O)N[C@@H](CC(C)C)C(=O)N[C@H](C(=O)N[C@@H](CS)C(=O)O)C(C)C [FK-16Cys] (H-FKRIVQRIKDFLRNLVC-OH; N-terminus and C-terminus assumed),12.5 ± 0 µM,50 ± 0 µM,37.5 ± 17.6 µM,>50 µM,12.5 ± 0 µM,12.5 to 50 µM,~35 µM,18 ± 7.2 µM,> 100 µM,,,,,,,,
"CC(C)C[C@H](NC(=O)[C@H](Cc1c[nH]c2ccccc12)NC(=O)[C@H](Cc1c[nH]c2ccccc12)NC(=O)[C@@H](N)Cc1c[nH]c2ccccc12)C(=O)N[C@@H](CCCNC(=N)N)C(=O)N[C@@H](CCCNC(=N)N)C(=O)N[C@@H](CCCNC(=N)N)C(=O)N[C@@H](Cc1c[nH]c2ccccc12)C(N)=O [Peptide I7R, WWWLRRRW] (H-WWWLRRRW-NH2; N-terminus assumed)",,,,,,,,,,the majority of cells are red,28 s,6.2 µM,almost equally effective to the WT,80%,48,3.1 µM,150 µM
